{"source": "patent US11229633B2", "about": "“Arimoclomol formulation” (Orphazyme A/S, priority 2014, dated 2022)", "key": {"[1]": {"assay": "Physical properties of the drug substance", "assay_type": "physicochemical"}, "[2]": {"molecular_target": "T1, OATP1B1 (Homo sapiens, UniProt Q9Y6L6)", "T1 sequence (Q9Y6L6 1-691)": "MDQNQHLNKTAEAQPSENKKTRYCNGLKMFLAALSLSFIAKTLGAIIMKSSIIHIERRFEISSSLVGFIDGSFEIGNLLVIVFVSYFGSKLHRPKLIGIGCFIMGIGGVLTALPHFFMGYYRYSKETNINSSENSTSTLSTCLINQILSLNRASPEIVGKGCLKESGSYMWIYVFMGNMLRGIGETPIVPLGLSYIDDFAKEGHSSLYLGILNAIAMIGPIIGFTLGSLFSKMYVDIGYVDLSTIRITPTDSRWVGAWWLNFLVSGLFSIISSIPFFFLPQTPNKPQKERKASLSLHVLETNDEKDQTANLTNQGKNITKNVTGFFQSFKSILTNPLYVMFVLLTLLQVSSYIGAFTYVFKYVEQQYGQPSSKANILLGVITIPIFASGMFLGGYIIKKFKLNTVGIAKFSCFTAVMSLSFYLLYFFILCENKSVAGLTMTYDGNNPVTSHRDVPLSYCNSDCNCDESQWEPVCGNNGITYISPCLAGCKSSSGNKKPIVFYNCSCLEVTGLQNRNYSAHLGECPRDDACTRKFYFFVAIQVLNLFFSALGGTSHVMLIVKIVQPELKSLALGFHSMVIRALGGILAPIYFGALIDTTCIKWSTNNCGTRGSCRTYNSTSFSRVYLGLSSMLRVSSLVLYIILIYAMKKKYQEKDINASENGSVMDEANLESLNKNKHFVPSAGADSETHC", "assay": "Substrate statement, OATP1B1", "assay_type": "in vitro ADME"}, "[3]": {"assay": "Solubility of test article in water and methanol", "assay_type": "physicochemical", "conditions": "25° C."}, "[4]": {"molecular_target": "T1, OATP1B1", "assay": "Uptake transporter inhibition assay, OATP1B1", "assay_type": "in vitro ADME", "set-up": "expressed in transfected cells; host or cells: HEK293 (protocol UPT-HEK293-OATP1B1-E217βG; control: mock-transfected HEK293 FT); key to maximum inhibition: NIO: No interaction observed", "conditions": "for maximum inhibition: 0.3-300 μM", "protocol": "Uptake experiments were performed using CHO, MDCKII, or HEK293 cells stably expressing the respective uptake transporters.\nCells were cultured at 37±1° C. in an atmosphere of 95:5 air:CO2 and were plated onto standard 96-well tissue culture plates at the cell number described in table 4.\nBefore the experiment, the medium was removed and the cells were washed twice with 100 μl of HK buffer at pH 7.4 (prepared from Sigma chemicals, Sigma-Aldrich, St Louis, Mo.). Uptake experiments were carried out at 37±1° C. in 50 μl of HK buffer (pH 7.4) containing the probe substrate and the TA or vehicle control (water).\nAfter the experiment, cells were washed twice with ice cold, 100 μl of HK buffer and lysed with 50 μl of 0.1 M NaOH (1 mM CaCl2) in 5% SDS in the case of OATP1B3). Fluo-3 transport (OATP1B3) was determined by measuring fluorescence using 485 nm and 520 nm as the excitation and emission wavelengths, respectively. Radiolabelled probe substrate transport was determined by measuring an aliquot (35 μl) from each well for liquid scintillation counting.\nUptake of the probe substrate in control cells provided background activity values for all data points. Incubation without TA or reference inhibitor (solvent only) provided 100% activity values. A reference inhibitor served as positive control for inhibition.\nThe amount of translocated probe substrate was determined for each well in cpm or RFU. Relative activities were calculated from the equation:\n[formula] A: amount of translocated substrate in the presence of TA in transfected cells B: amount of translocated substrate in the presence of TA in control cells C: amount of translocated substrate in the presence of solvent in transfected cells D: amount of translocated substrate in the presence of solvent in control cells Calculation of Fold Accumulation Values\nIn uptake transporter inhibition assays, the IC50 (μM) was calculated, where applicable. […]"}, "[5]": {"assay": "Kinetic solubility assessment in the assay buffers", "assay_type": "physicochemical", "conditions": "aqueous buffer, kinetic from dmso stock, 37° C.", "method": "The aqueous solubility of the TA was determined by spectrophotometric measurements in combination with optical microscopy evaluation (5 and 10× magnification). […] The timeframe of the solubility assessment covered the incubation time of the corresponding in vitro experiment.\nA stock solution and dilution series (5-step, 2-fold dilution series) of TA were prepared in water. Stock solutions were mixed with the appropriate assay buffers in a 96-wells plate and incubated for 10 minutes at 37° C. before the solutions were evaluated at 500 nm. […] Therefore, to be considered soluble at a given concentration, the background corrected absorbance of the TA solution must be less than 0.030 absorbance units (ΔA=Asolution−Ablank <0.030). The background corrected absorbance value for each solution was determined."}}, "note": "Entries after “also recorded” stand apart in the source; their conditions may differ.", "data": [{"smiles": "[O-][n+]1cccc(C(Cl)=NOCC(O)CN2CCCCC2)c1", "note": "(stereo not shown) [Arimoclomol, N-[2-hydroxy-3-(1-piperidinyl)-propoxy]-pyridine-1-oxide-3-carboximidoyl chloride]", "values": [{"measurement": "Carr's Index", "setting": "[1]; drug substance", "result": 44.4, "unit": "%"}, {"measurement": "bulk density", "setting": "[1]; drug substance", "result": 0.214, "unit": "g/cm3"}, {"measurement": "tapped density", "setting": "[1]; following 250 taps", "result": 0.386, "unit": "g/cm3"}, {"measurement": "Substrate of the transporter (in words)", "setting": "[2]", "result": "not a substrate"}, {"measurement": "Solubility", "setting": "[3]; methanol", "result": 0.4, "unit": "g/100 mL"}, {"measurement": "Solubility", "setting": "[3]; water", "result": 14, "unit": "g/100 mL"}, {"measurement": "maximum inhibition", "setting": "[4]; Table 2", "result": "NIO"}, {"measurement": "maximum inhibition", "setting": "[4]; Table 5", "result": "NIO"}, {"measurement": "Influence on OATP1B1-mediated probe substrate accumulation (in words)", "setting": "[4]; applied concentrations", "result": "did not influence; also recorded: not an inhibitor"}, {"measurement": "solubility at 10 min", "setting": "[5]", "result": "≥ 300", "unit": "µM"}]}]}
